Activity calls are given as the source filed them. No cut-off for these calls is given here.
Assays:
[1] = target: Free fatty acid receptor 4 (Homo sapiens, UniProt Q5NUL3); assay: Agonist activity at human GPR120 short splice variant expressed in HEK293 cells assessed as increase in intracellular calcium flux by Fluo-4 NW dye based FLIPR assay; format: functional, cell-based
[2] = target: T1, Free fatty acid receptor 4 (Homo sapiens, UniProt Q5NUL3); assay: Agonist activity at human GPR120 expressed in CHO-K1 cells assessed as […] by DiscoveRx PathHunter beta-arrestin assay; format: functional, cell-based
T1 sequence (Q5NUL3 whole entry): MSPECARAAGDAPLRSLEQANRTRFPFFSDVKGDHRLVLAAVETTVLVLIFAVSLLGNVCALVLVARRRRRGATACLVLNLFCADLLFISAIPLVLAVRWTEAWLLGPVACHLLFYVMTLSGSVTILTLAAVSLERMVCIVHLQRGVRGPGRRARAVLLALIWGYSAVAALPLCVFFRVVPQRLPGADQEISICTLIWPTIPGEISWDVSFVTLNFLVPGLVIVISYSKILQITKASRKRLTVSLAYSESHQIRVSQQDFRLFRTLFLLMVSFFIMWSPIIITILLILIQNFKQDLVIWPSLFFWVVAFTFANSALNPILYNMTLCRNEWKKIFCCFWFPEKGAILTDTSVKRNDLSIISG

[3] = Protein binding in human plasma; format: ADME, cell-free; details: read-out: PPB (converted)
[4] = Protein binding in mouse plasma; format: ADME, cell-free; details: read-out: PPB (converted)
[5] = Protein binding in rat plasma; format: ADME, cell-free; details: read-out: PPB (converted)
[6] = Clearance in C57/black 6J mouse at 5 mg/kg, iv by LC-MS/MS method; format: ADME, organism-based; details: in vivo
[7] = Volume of distribution at steady state in C57/black 6J mouse at 5 mg/kg, iv by LC-MS/MS method; format: ADME, organism-based; details: in vivo, read-out: Vdss
[8] = Half life in C57/black 6J mouse at 20 mg/kg dosed as oral gavage by LC-MS/MS method; format: ADME, organism-based; details: in vivo
[9] = Cmax in C57/black 6J mouse at 20 mg/kg dosed as oral gavage by LC-MS/MS method; format: ADME, organism-based; set-up: dose 20 mg/kg, route oral; details: in vivo
[10] = AUClast in C57/black 6J mouse at 20 mg/kg dosed as oral gavage by LC-MS/MS method; format: ADME, organism-based; set-up: dose 20 mg/kg, route oral, time 0 - last; details: in vivo
[11] = (§1) Oral bioavailability in C57/black 6J mouse at 20 mg/kg by LC-MS/MS method; format: ADME, organism-based; details: C57/black 6J, in vivo
[12] = test system: Mus musculus; assay: Antidiabetic activity in C57bl/6J mouse assessed as reduction in blood glucose level at 1 to 10 mg/kg, po dosed 30 mins before glucose challenge by intraperitoneal glucose tolerance test; format: functional, organism-based
[13] = test system: Mus musculus; assay: Antidiabetic activity in C57bl/6J mouse assessed as reduction in blood glucose delta AUC level at 1 to 10 mg/kg, po dosed 30 mins before glucose challenge by intraperitoneal glucose tolerance test; format: functional, organism-based
[14] = test system: Mus musculus; assay: Antidiabetic activity in C57bl/6J mouse assessed as reduction in blood glucose delta AUC level at 1 mg/kg, po dosed 30 mins before glucose challenge and measured 90 mins post glucose injection by intraperitoneal glucose tolerance test; format: functional; set-up: scale not given: the % may be the effect or the level left
[15] = test system: Mus musculus; assay: Antidiabetic activity in C57bl/6J mouse assessed as reduction in blood glucose delta AUC level at 3 mg/kg, po dosed 30 mins before glucose challenge and measured 90 mins post glucose injection by intraperitoneal glucose tolerance test; format: functional; set-up: scale not given: the % may be the effect or the level left
[16] = test system: Mus musculus; assay: Antidiabetic activity in C57bl/6J mouse assessed as reduction in blood glucose delta AUC level at 10 mg/kg, po dosed 30 mins before glucose challenge and measured 90 mins post glucose injection by intraperitoneal glucose tolerance test; format: functional; set-up: scale not given: the % may be the effect or the level left
[17] = Stability in human liver microsomes assessed as parent compound remaining after 10 mins; format: ADME, microsome; details: read-out: Stability
[18] = Stability in mouse liver microsomes assessed as parent compound remaining after 10 mins; format: ADME, microsome; details: read-out: Stability
[19] = Stability in rat liver microsomes assessed as parent compound remaining after 10 mins; format: ADME, microsome; details: read-out: Stability
[20] = test system: Mus musculus; assay: as §1; format: ADME, organism-based; details: in vivo
[21] = test system: Mus musculus; assay: Antidiabetic activity in C57bl/6J mouse assessed as reduction in blood glucose level at 10 mg/kg, po dosed 30 mins before glucose challenge by intraperitoneal glucose tolerance test; format: functional, organism-based

## Cc1c(CCC(=O)O)ccc(OCc2cccn2-c2ccc(Cl)cc2)c1C
[1]
  EC50: 145 nM
[2]
  EC50: 930 nM

## CCc1ccc(-c2noc(C(F)(F)F)c2COc2c(F)cc(CCC(=O)O)cc2F)cc1
[1]
  EC50: 57 nM
[2]
  EC50: 60 nM
[3]
  fraction unbound: 0.0006
[4]
  fraction unbound: 0.0008
[5]
  fraction unbound: 0.0011
[6]
  clearance: 27.1 mL/min/kg
[7]
  Vd: 0.898 L/kg
[8]
  half-life: 1.03 h
[9]
  Cmax: 7670 ng/mL
[10]
  AUC(0-t): 9660 ng·h/mL
[11]
  bioavailability: 78.7%
[12]
  Activity: Dose-dependent effect
[13]
  Activity: Dose-dependent effect
[14]
  Activity: 30%
[15]
  Activity: -35%
[16]
  Activity: -54%

## Cc1onc(-c2ccc(Cl)cc2)c1COc1ccc(CCC(=O)O)c(C)c1C
[1]
  EC50: 270 nM
[2]
  EC50: 760 nM

## Cc1cc(OCc2c(-c3ccc(Cl)cc3)noc2C(F)(F)F)c(F)cc1CCC(=O)O
[1]
  EC50: 410 nM

## CCc1ccc(-n2cccc2COc2ccc(CCC(=O)O)c(C)c2C)cc1
[1]
  EC50: 100 nM
[2]
  EC50: 750 nM

## CCc1ccc(-c2ccsc2COc2ccc(CCC(=O)O)c(C)c2C)cc1
[1]
  EC50: 160 nM
[2]
  EC50: 900 nM

## CCc1onc(-c2ccc(Cl)cc2)c1COc1ccc(CCC(=O)O)c(C)c1C
[1]
  EC50: 740 nM
[2]
  EC50: 400 nM
[17]
  remaining at 10 min: 66.3%
[18]
  remaining at 10 min: 50.2%
[19]
  remaining at 10 min: 45.6%

## Cc1ccc(-c2noc(C(F)(F)F)c2COc2c(F)cc(CCC(=O)O)cc2F)cc1
[1]
  EC50: 120 nM
[2]
  EC50: 180 nM
[17]
  remaining at 10 min: 64.4%
[18]
  remaining at 10 min: 84.5%
[19]
  remaining at 10 min: 37.9%

## Cc1c(CCC(=O)O)ccc(OCc2cnnn2-c2ccc(Cl)cc2)c1C
[1]
  EC50: > 5000 nM

## O=C(O)CCc1ccc(OCc2c(-c3ccccc3)noc2C(F)(F)F)cc1
[1]
  EC50: 150 nM

## Cc1c(CCC(=O)O)ccc(OCc2csnc2-c2ccc(Cl)cc2)c1C
[1]
  EC50: 217 nM

## O=C(O)CCc1cc(F)c(OCc2c(-c3ccccc3)noc2C(F)(F)F)c(F)c1
[1]
  EC50: 170 nM
[2]
  EC50: 69 nM
[17]
  remaining at 10 min: 95.6%
[18]
  remaining at 10 min: 93%
[19]
  remaining at 10 min: 110%
[3]
  fraction unbound: 0.0017
[4]
  fraction unbound: 0.0047
[5]
  fraction unbound: 0.0122
[7]
  Vd: 0.336 L/kg
[8]
  half-life: 2.58 h
[20]
  F: 49.5%

## Cc1noc(-c2ccc(Cl)cc2)c1COc1ccc(CCC(=O)O)c(C)c1C
[1]
  EC50: 350 nM
[2]
  EC50: 810 nM

## O=C(O)CCc1cc(F)c(OCc2c(-c3ccc(Cl)cc3)noc2C(F)(F)F)c(F)c1
[1]
  EC50: 71 nM
[2]
  EC50: 160 nM
[17]
  remaining at 10 min: 113%
[18]
  remaining at 10 min: 105%
[19]
  remaining at 10 min: 98.9%
[3]
  fraction unbound: 0.0007
[4]
  fraction unbound: 0.0014
[5]
  fraction unbound: 0.0019
[6]
  clearance: 7.18 mL/min/kg
[7]
  Vd: 1.26 L/kg
[8]
  half-life: 2.07 h
[9]
  Cmax: 12700 ng/mL
[10]
  AUC(0-t): 43200 ng·h/mL
[11]
  bioavailability: 93%
[21]
  Activity: Active
[14]
  Activity: 20%
[15]
  Activity: 23%
[16]
  Activity: -56%

## O=C(O)CCc1ccc(OCc2c(-c3ccc(Cl)cc3)noc2C(F)(F)F)c(F)c1F
[1]
  EC50: 670 nM
[2]
  EC50: 140 nM
[17]
  remaining at 10 min: 99.6%
[18]
  remaining at 10 min: 109%
[19]
  remaining at 10 min: 106%

## Cc1c(CCC(=O)O)ccc(OCc2c(-c3ccc(Cl)cc3)noc2C(F)(F)F)c1C
[1]
  EC50: 680 nM
[2]
  EC50: 160 nM
[17]
  remaining at 10 min: 80.9%
[18]
  remaining at 10 min: 91.2%
[19]
  remaining at 10 min: 68%

## Cc1c(CCC(=O)O)ccc(OCc2ccccc2-c2ccc(Cl)cc2)c1C
[1]
  EC50: 220 nM

## Cc1c(CCC(=O)O)ccc(OCc2c(-c3ccc(Cl)cc3)noc2-c2ccccc2)c1C
[1]
  EC50: 2830 nM

## O=C(O)CCc1cc(F)c(OCc2c(-c3ccc(C(F)(F)F)cc3)noc2C(F)(F)F)c(F)c1
[1]
  EC50: 340 nM
[2]
  EC50: 190 nM

## O=C(O)CCc1cc(F)c(OCc2c(-c3ccc(F)cc3Cl)noc2C(F)(F)F)c(F)c1
[1]
  EC50: 71 nM
[2]
  EC50: 290 nM
[17]
  remaining at 10 min: 108%
[18]
  remaining at 10 min: 99.3%
[19]
  remaining at 10 min: 92%

## Cc1c(CCC(=O)O)ccc(OCc2ccnn2-c2ccc(Cl)cc2)c1C
[1]
  EC50: 610 nM
[2]
  EC50: 2030 nM

## Cc1c(CCC(=O)O)ccc(OCc2nnnn2-c2ccc(Cl)cc2)c1C
[1]
  EC50: > 5000 nM

## COc1ccc(-c2noc(C(F)(F)F)c2COc2c(F)cc(CCC(=O)O)cc2F)cc1
[1]
  EC50: 1130 nM

## Cc1c(CCC(=O)O)ccc(OCc2conc2-c2ccc(Cl)cc2)c1C
[1]
  EC50: 1440 nM
[2]
  EC50: 2760 nM

## Cc1c(CCC(=O)O)ccc(OCc2nccn2-c2ccc(Cl)cc2)c1C
[1]
  EC50: > 5000 nM

## O=C(O)CCc1ccc(OCc2c(-c3ccc(Cl)cc3)noc2C(F)(F)F)cc1C(F)(F)F
[1]
  EC50: 1450 nM

## O=C(O)CCc1cc(F)c(OCc2c(-c3ccc(Br)cc3)noc2C(F)(F)F)c(F)c1
[1]
  EC50: 120 nM
[17]
  remaining at 10 min: 105%
[18]
  remaining at 10 min: 94.1%
[19]
  remaining at 10 min: 72.3%

## CCc1ccc(-n2nccc2COc2ccc(CCC(=O)O)c(C)c2C)cc1
[1]
  EC50: 520 nM
[2]
  EC50: 1150 nM

## Cc1c(CCC(=O)O)ccc(OCc2ncoc2-c2ccc(Cl)cc2)c1C
[1]
  EC50: 1750 nM

## Cc1c(CCC(=O)O)ccc(OCc2scnc2-c2ccc(Cl)cc2)c1C
[1]
  EC50: 81 nM

## O=C(O)CCc1cc(F)c(OCc2c(-c3ccc(C4CC4)cc3)noc2C(F)(F)F)c(F)c1
[1]
  EC50: 170 nM

## CCc1ccc(-c2cscc2COc2ccc(CCC(=O)O)c(C)c2C)cc1
[1]
  EC50: 142 nM

## Cc1ccc(-c2noc(C(F)(F)F)c2COc2c(F)cc(CC(C)C(=O)O)cc2F)cc1 (centres undefined)
[1]
  EC50: 110 nM
[2]
  EC50: 160 nM
[17]
  remaining at 10 min: 93%
[18]
  remaining at 10 min: 86.3%
[19]
  remaining at 10 min: 54.3%

## Cc1c(CCC(=O)O)ccc(OCc2c(-c3ccc(Cl)cc3)noc2C2CC2)c1C
[1]
  EC50: 1070 nM
[2]
  EC50: 1090 nM

## CCCc1onc(-c2ccc(Cl)cc2)c1COc1ccc(CCC(=O)O)c(C)c1C
[1]
  EC50: 1060 nM
[2]
  EC50: 130 nM
[17]
  remaining at 10 min: 79.3%
[18]
  remaining at 10 min: 48.3%
[19]
  remaining at 10 min: 38.4%

## CCc1ccc(-c2sncc2COc2ccc(CCC(=O)O)c(C)c2C)cc1
[1]
  EC50: 190 nM

## O=C(O)CCc1cc(F)c(OCc2c(-c3ccc(F)cc3)noc2C(F)(F)F)c(F)c1
[1]
  EC50: 150 nM
[2]
  EC50: 230 nM
[17]
  remaining at 10 min: 103%
[18]
  remaining at 10 min: 119%
[19]
  remaining at 10 min: 66.2%

Reference: ChEMBL document CHEMBL4052698, “Design, synthesis and SAR of a novel series of heterocyclic phenylpropanoic acids as GPR120 agonists” (Bioorg Med Chem Lett, 2017)
